Values after ≈ are worked out from the molar mass of the structure shown.
Experiments:
Experiment in all cases: high resolution minimum inhibitory concentration (HRMIC) test
Type in all cases: cell-based
Escherichia coli 8739 = conditions: for better control versus Gram-negative (E. coli) bacteria than compound 6: ratio of MIC relative to compound 6 (MIC >1000 ppm)
Description: (§1) Biological Activity: certain compounds of the present invention were tested for activity against three microorganisms, Escherichia coli 8739 (Gram-negative bacterium) and Staphylococcus aureus 6538 (Gram-positive bacterium) and Aspergillus niger 16404.
(§2) The lowest concentration of test compound required to inhibit Staphylococcus aureus 6538, Escherichia coli 8739 and Aspergillus niger 16404 was determined by a high resolution minimum inhibitory concentration (HRMIC) test. Varying amounts of the test compounds were added to minimal salts glucose medium (see T. Maniatis, E.F. Fritsch and J. Sambrook, Molecular Cloning, p 68 (1982)) supplemented with 0.1% yeast extract (M9GY) in a 96-well microtiter plate. Ten-fold serial dilutions were performed on a Biomek™ 2000 Workstation to obtain a range of closely spaced concentrations of test compound as shown in Table 1 (based on dilutions of a 10,000 ppm active ingredient stock solution of the test compound). The plates were inoculated with cell suspension of inoculum and adjusted to provide about 10^6 CFU (colony forming units)/ml in each well. The microtiter plates were incubated at 30°C for 24 hours and then checked (optical density at 650 nm using a microplate reader) for the presence or absence of microbial growth in each well. […] Data reported (ppm active ingredient) are the average of multiple determinations (see Table 2).

Aspergillus niger 16404 = conditions: ppm active ingredient, M9GY medium, about 10^6 CFU/ml, 30°C for 24 hours, average of multiple determinations
Description: as §1, §2

[1] = tested on: Staphylococcus aureus 6538
Description: as §1, §2

| MIC (Aspergillus niger 16404) [µg/mL] | MIC (Escherichia coli 8739; Escherichia coli, 8739, ppm active ingredient, M9GY medium, about 10^6 CFU/ml, 30°C for 24 hours, average of multiple determinations, read-out: MIC (ppm) E. coli) [µg/mL] | MIC ([1]; Staphylococcus aureus, 6538, ppm active ingredient, M9GY medium, about 10^6 CFU/ml, 30°C for 24 hours, average of multiple determinations, read-out: MIC (ppm) S. aur) [µg/mL] | SMILES | better control versus Gram-negative (E. coli) bacteria than compound 6 (Escherichia coli 8739) | better control versus Gram-positive (S. aur) bacteria than compound 6 ([1]; ratio of MIC relative to compound 6) [fold] |
| --- | --- | --- | --- | --- | --- |
|  |  |  | CCCCCCCCn1sc(Sc2cccc[n+]2[O-])c(Cl)c1=O [Compound 5, [4-chloro-2-n-octyl-3-isothiazolon-5-yl]-(1-oxypyridin-2-yl)sulfide] | at least 30 fold |  |
| 60 (≈ 250 µM) | 6 (≈ 25 µM) | 1 (≈ 4.16 µM) | Cn1sc(Sc2cccc[n+]2[O-])cc1=O [Compound 3, [2-methyl-3-isothiazolon-5-yl]-(1-oxypyridin-2-yl)sulfide] | ≥ 160 fold | 5 |

— patent EP1223171A1, “Antimicrobial 5-substituted-3-isothiazolone compounds and methods of use” (Rohm and Haas, priority 2001, dated 2002)
